Test results from patent EP0048614B1, “1-N-acylated and 1-N-alkylated derivatives of 4-0-substituted -2-deoxystreptamine aminoglycosides” (ELI LILLY AND COMPANY, priority 1980, dated 1982).
Converted amounts (≈) assume the structure as drawn.

Assays:
[1] = test system: Bordetella bronchiseptica 16; assay: MIC, standard agar dilution test; assay type: cell-based; details: Bordetella bronchiseptica, 16, read-out: Minimum Inhibitory Concentration
Source text: (§1) The antibacterial activity of the deprotected compounds of this invention is illustrated by the following in vitro and in vivo test data obtained with representative compounds. In Table I, the minimum inhibitory concentration (MIC) for representative compounds against a wide range of gram-positive and gram-negative bacteria is presented. The MIC values were obtained by the standard agar dilution test.

[2] = test system: Citrobacter freundii CF17; assay: MIC, standard agar dilution test; assay type: cell-based; details: Citrobacter freundii, CF17, read-out: Minimum Inhibitory Concentration
Source text: as §1

[3] = test system: Enterobacter aerogenes C32; assay: MIC, standard agar dilution test; assay type: cell-based; details: Klebsiella aerogenes; Enterobacter aerogenes C32; agar dilution; read-out: Minimum Inhibitory Concentration
Source text: as §1

[4] = test system: Enterobacter aerogenes EB17; assay: MIC, standard agar dilution test; assay type: cell-based; details: Klebsiella aerogenes; Enterobacter aerogenes EB17; agar dilution; read-out: Minimum Inhibitory Concentration
Source text: as §1

[5] = test system: Enterobacter aerogenes X68; assay: MIC, standard agar dilution test; assay type: cell-based; details: Klebsiella aerogenes, Enterobacter aerogenes X68, read-out: Minimum Inhibitory Concentration
Source text: as §1

[6] = test system: Enterobacter cloacae 265A; assay: MIC, standard agar dilution test; assay type: cell-based; details: Enterobacter cloacae, 265A, read-out: Minimum Inhibitory Concentration
Source text: as §1

Enterobacter cloacae EB5 = assay: MIC, standard agar dilution test; assay type: cell-based; details: Enterobacter cloacae, EB5, read-out: Minimum Inhibitory Concentration
Source text: as §1

Escherichia coli EC14 = assay: MIC, standard agar dilution test; assay type: cell-based; details: Escherichia coli, EC14, read-out: Minimum Inhibitory Concentration
Source text: as §1

Escherichia coli N10 = assay: MIC, standard agar dilution test; assay type: cell-based; details: Escherichia coli, N10, read-out: Minimum Inhibitory Concentration
Source text: as §1

Escherichia coli TEM = assay: MIC, standard agar dilution test; assay type: cell-based; details: read-out: Minimum Inhibitory Concentration
Source text: as §1

Hemophilus influenzae 76 = assay: MIC, standard agar dilution test; assay type: cell-based; details: Haemophilus influenzae, Hemophilus influenzae 76, read-out: Minimum Inhibitory Concentration
Source text: as §1

[7] = test system: Hemophilus influenzae C.L.; assay: MIC, standard agar dilution test; assay type: cell-based; details: Haemophilus influenzae, Hemophilus influenzae C.L., read-out: Minimum Inhibitory Concentration
Source text: as §1

[8] = test system: Klebsiella pneumoniae KAE; assay: MIC, standard agar dilution test; assay type: cell-based; details: Klebsiella pneumoniae, read-out: Minimum Inhibitory Concentration
Source text: as §1

[9] = test system: Klebsiella pneumoniae X26; assay: MIC, standard agar dilution test; assay type: cell-based; details: Klebsiella pneumoniae X26; agar dilution; read-out: Minimum Inhibitory Concentration
Source text: as §1

Proteus inconstans PR33 = assay: MIC, standard agar dilution test; assay type: cell-based; details: Providencia alcalifaciens, PR33, read-out: Minimum Inhibitory Concentration
Source text: as §1

Proteus morganii PR15 = assay: MIC, standard agar dilution test; assay type: cell-based; details: Morganella morganii, PR15, read-out: Minimum Inhibitory Concentration
Source text: as §1

Proteus rettgeri C24 = assay: MIC, standard agar dilution test; assay type: cell-based; details: Providencia rettgeri; Proteus rettgeri C24; agar dilution; read-out: Minimum Inhibitory Concentration
Source text: as §1

Proteus rettgeri PR7 = assay: MIC, standard agar dilution test; assay type: cell-based; details: Providencia rettgeri, PR7, read-out: Minimum Inhibitory Concentration, Proteus rettgeri PR7
Source text: as §1

[10] = test system: Pseudomonas aeruginosa Ps18; assay: MIC, standard agar dilution test; assay type: cell-based; details: Pseudomonas aeruginosa, PS18, read-out: Minimum Inhibitory Concentration
Source text: as §1

[11] = test system: Pseudomonas aeruginosa X239; assay: MIC, standard agar dilution test; assay type: cell-based; details: Pseudomonas aeruginosa, X239, read-out: Minimum Inhibitory Concentration
Source text: as §1

[12] = test system: Pseudomonas aeruginosa X528; assay: MIC, standard agar dilution test; assay type: cell-based; details: Pseudomonas aeruginosa, X528, read-out: Minimum Inhibitory Concentration
Source text: as §1

[13] = test system: Salmonella heidelberg X514; assay: MIC, standard agar dilution test; assay type: cell-based; details: Salmonella enterica, X514, read-out: Minimum Inhibitory Concentration
Source text: as §1

[14] = test system: Salmonella typhimurium 1335; assay: MIC, standard agar dilution test; assay type: cell-based; details: Salmonella enterica, TYPHIMURIUM, read-out: Minimum Inhibitory Concentration
Source text: as §1

Serratia marcescens SE3 = assay: MIC, standard agar dilution test; assay type: cell-based; details: Serratia marcescens, SE3, read-out: Minimum Inhibitory Concentration
Source text: as §1

Serratia marcescens X99 = assay: MIC, standard agar dilution test; assay type: cell-based; details: Serratia marcescens X99, read-out: Minimum Inhibitory Concentration
Source text: as §1

Shigella sonnei N9 = assay: MIC, standard agar dilution test; assay type: cell-based; details: read-out: Minimum Inhibitory Concentration
Source text: as §1

[15] = test system: Staphylococcus aureus S13E; assay: MIC, standard agar dilution test; assay type: cell-based; details: read-out: Minimum Inhibitory Concentration
Source text: as §1

[16] = test system: Staphylococcus aureus V41; assay: MIC, standard agar dilution test; assay type: cell-based; details: Staphylococcus aureus, V41, read-out: Minimum Inhibitory Concentration
Source text: as §1

[17] = test system: Staphylococcus aureus X1.1; assay: MIC, standard agar dilution test; assay type: cell-based; details: Staphylococcus aureus X1.1; agar dilution; read-out: Minimum Inhibitory Concentration
Source text: as §1

[18] = test system: Staphylococcus aureus X400; assay: MIC, standard agar dilution test; assay type: cell-based; details: Staphylococcus aureus, X400, read-out: Minimum Inhibitory Concentration, Staphylococcus aureus X400
Source text: as §1

[19] = test system: Staphylococcus epidermidis EPI1; assay: MIC, standard agar dilution test; assay type: cell-based; details: Staphylococcus epidermidis, EPI1; read-out: Minimum Inhibitory Concentration
Source text: as §1

[20] = test system: Staphylococcus epidermidis EPI2; assay: MIC, standard agar dilution test; assay type: cell-based; details: Staphylococcus epidermidis EPI2; agar dilution; read-out: Minimum Inhibitory Concentration
Source text: as §1

[21] = test system: Streptococcus group D 9960; assay: MIC, standard agar dilution test; assay type: cell-based; details: D9960, read-out: Minimum Inhibitory Concentration
Source text: as §1

[22] = test system: Streptococcus group D X66; assay: MIC, standard agar dilution test; assay type: cell-based; details: DX66, read-out: Minimum Inhibitory Concentration
Source text: as §1

[23] = test system: Streptococcus pneumoniae Park I; assay: MIC, standard agar dilution test; assay type: cell-based; details: Streptococcus pneumoniae, read-out: Minimum Inhibitory Concentration
Source text: as §1

[24] = test system: Streptococcus pyogenes C203; assay: MIC, standard agar dilution test; assay type: cell-based; details: Streptococcus pyogenes, C203, read-out: Minimum Inhibitory Concentration
Source text: as §1

[25] = test system: Staphylococcus aureus 3055; assay: Subcutaneous therapy of experimental bacterial infection in mice (ED50); assay type: in vivo; details: Staphylococcus aureus, 3055, sc; mg/kg × 2 subcutaneous doses at 1 and 5 hours post infection; mice challenged with 1,794 LD50's; read-out: Effective Dose (ED50)
Method: Table II illustrates the effective dose (ED50, the effective dose to protect 50 percent of the test animals) for representative compounds of this invention against an experimental bacterial infection in mice.
The ED50 values were determined as described by W. E. Wick et al., Journal of Bacteriology, 81 [No. 2], 233-235 (1961).

Escherichia coli X563 = assay: Standard disc-plate method, zone of inhibition against apramycin-resistant strain; assay type: cell-based; details: Escherichia coli, X563, read-out: Zone of Inhibition (diameter in mm), 15 mcg/disc; apramycin-resistant E. coli X563; one value for each of two test runs per compound
Source text: Table III, shown below, illustrates the in vitro activity of 1-N-(S-y-amino-a-hydroxybutyryl)apramycin, 1-N-(RS-y-amino-a-hydroxybutyryl)apramycin, and 1-N-(S-y-amino-a-hydroxybutyryl)nebramine against an apramycin resistant strain of E. coli. The results below were obtained using the standard disc-plate method. The numerical values are the diameters in millimeters of the zones of inhibition observed against this bacterium. Compounds substituted with the y-amino-a-hydroxybutyryl and analogous side chains are useful in treating infections caused by apramycin resistant bacteria such as the one above.
The test organism (E. coli X563) used in the experiments summarized in Table III is resistant to apramycin due to a 3-N-acetyltransferase which enzymatically inactivates apramycin.

CNC1C(OC2OC(CO)C(N)C(O)C2O)OC2CC(N)C(OC3C(N)CC(NC(=O)CN)C(O)C3O)OC2C1O (centres unmarked) [Test Compound 3, 1-N-glycylapramycin]
MIC [1]: > 128 µg/mL
MIC [2]: > 128 µg/mL
MIC [3]: 64 µg/mL (≈ 107 µM)
MIC [4]: 64 µg/mL (≈ 107 µM)
MIC [5]: 64 µg/mL (≈ 107 µM)
MIC [6]: 128 µg/mL (≈ 215 µM)
MIC (Enterobacter cloacae EB5): 128 µg/mL (≈ 215 µM)
MIC (Escherichia coli EC14): 128 µg/mL (≈ 215 µM)
MIC (Escherichia coli N10): > 128 µg/mL
MIC (Escherichia coli TEM): 32 µg/mL (≈ 53.6 µM)
MIC (Hemophilus influenzae 76): 64 µg/mL (≈ 107 µM)
MIC [7]: 64 µg/mL (≈ 107 µM)
MIC [8]: > 128 µg/mL
MIC [9]: 64 µg/mL (≈ 107 µM)
MIC (Proteus inconstans PR33): 128 µg/mL (≈ 215 µM)
MIC (Proteus morganii PR15): > 128 µg/mL
MIC (Proteus rettgeri C24): 64 µg/mL (≈ 107 µM)
MIC (Proteus rettgeri PR7): > 128 µg/mL
MIC [10]: > 128 µg/mL
MIC [11]: > 128 µg/mL
MIC [12]: > 128 µg/mL
MIC [13]: 128 µg/mL (≈ 215 µM)
MIC [14]: 128 µg/mL (≈ 215 µM)
MIC (Serratia marcescens SE3): 128 µg/mL (≈ 215 µM)
MIC (Serratia marcescens X99): 64 µg/mL (≈ 107 µM)
MIC (Shigella sonnei N9): 128 µg/mL (≈ 215 µM)
MIC [15]: 64 µg/mL (≈ 107 µM)
MIC [16]: 128 µg/mL (≈ 215 µM)
MIC [17]: 64 µg/mL (≈ 107 µM)
MIC [18]: > 128 µg/mL
MIC [19]: 64 µg/mL (≈ 107 µM)
MIC [20]: 64 µg/mL (≈ 107 µM)
MIC [21]: > 128 µg/mL
MIC [22]: > 128 µg/mL
MIC [23]: > 128 µg/mL
MIC [24]: > 128 µg/mL
ED50 [25]: 59.5 mg/kg
zone of inhibition at 15 µg/disc (Escherichia coli X563): < 8 mm
